One compound from patent publication US11155523B2, “Biphenyl compound as CCR2/CCR5 receptor antagonist” (Medshine Discovery Inc., priority 2016, dated 2021) can be followed below.

In one series the target is T1, CCR5 (Homo sapiens, UniProt P51681).
T1 construct: expressed in transfected cells; host or cells: HEK293, clone C13, passage P4
Description: CCR5 in vitro test: intracellular calcium signal detected by FLIPR. It counts as cell-based. Conditions: HEK293 cells expressing CCR5, agonist RANTES at EC80, calcium signal. In short, it runs like this: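 Receptor-expressing cells loaded with Fluo-4 Direct and probenecid (2.5 mM final), then preincubated with compounds (11-point 1:3 series) before challenge at EC80 of agonist (MCP-1 for CCR2, RANTES for CCR5). FLIPR calcium max−min signal; IC50 fitted.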
For orientation: Calcium assays in cells follow changes in intracellular calcium, usually with a dye or a luminescent sensor.

Another series addresses T2, CYP2D6 (Homo sapiens, UniProt P10635).
T2 construct: from tissue; host or cells: human liver microsomes
Description: Inhibition of human liver microsomal CYP2D6 (dextromethorphan probe). The class given is in vitro ADME. The note with it: human liver microsomes. The protocol: (§1) Experimental Example 4 Inhibition Effect on the Activity of Human Liver Microsomal Cytochrome P450 Isoezymes (CYP1A2, CYP2C9, CYP2C19, CYP2D6 and CYP3A4)
(§2) A total of 5 specific probe substrates for CYP's five isozymes, Phenacetin (CYP1A2), Diclofenac (CYP2C9), […] (S)-Mephenytoin, CYP2C19), Dextromethorphan (CYP2D6) and Midazolam (CYP3A4) were incubated with human liver microsomes and test compounds, respectively, and reduced nicotinamide adenine dinucleotide phosphate (NADPH) was added to initiate the reaction. After the reaction, the sample was processed and liquid chromatography tandem mass spectrometry (LC-MS/MS) was used to quantitatively detect the […] metabolites produced by the specific substrate, Acetaminophen and 4′-hydroxydiclofenac, 4′-hydroxymephenytoin, Dextrorphan and 1′-hydroxymidazolam, in order to calculate the corresponding half maximal inhibitory concentration (IC50).
For orientation: Liver microsomes are a subcellular fraction often used to study metabolism.

In a further series the target is T3, CYP2C19 (Homo sapiens, UniProt P33261).
T3 construct: from tissue; host or cells: human liver microsomes
Description: Inhibition of human liver microsomal CYP2C19 ((S)-mephenytoin probe). The class given is in vitro ADME. The note with it: human liver microsomes. Here is the method:
as §1, §2

A further series concerns the target T4, CYP3A4 (Homo sapiens, UniProt P08684).
T4 construct: from tissue; host or cells: human liver microsomes
Description: Inhibition of human liver microsomal CYP3A4 (midazolam probe). It counts as in vitro ADME. The note with it: human liver microsomes, probe midazolam. The protocol:
as §1, §2

Series [1] in a line: Comparative pharmacokinetics study in rats. Conditions: rat. The class given is in vivo, SD male rats. Here is the method: Experimental Example 2: Comparative Pharmacokinetics Study in Rats
SD male rats were used as the test animals in this study. The drug concentrations in plasma of the rats by intravenous or oral administration of test compounds WX017, WX047, WX079, WX088 and reference compound at different time points were quantitatively determined by LC/MS/MS, which were used to evaluate the pharmacokinetic profile of the two test drugs in rats.
A clear solution of the test compound was injected into SD rats via the tail vein (overnight fasting, 7-10 weeks old), and the test compound was orally administered to the SD rats (overnight fasting, 7-10 weeks old). Approximately 200 μL of blood was collected from the jugular vein or tail vein of the animals 0.0833, 0.25, 0.5, 1, 2, 4, 6, 8 and 24 hours after administration, and was placed in an anticoagulant tube containing EDTA-K2. The plasma was collected by centrifugation at 3000 g for 15 minutes at 4° C. The plasma concentration was determined by LC-MS/MS. The pharmacokinetic parameters were calculated by the non-compartment model linear logarithmic trapezoidal method using WinNonlin™ Version 6.3 (Pharsight, Mountain View, Calif.) pharmacokinetic software.

For the next series, the target named is T5, CYP2C9 (Homo sapiens, UniProt P11712).
T5 construct: from tissue; host or cells: human liver microsomes
The experiment in a line: Inhibition of human liver microsomal CYP2C9 (diclofenac probe). The note with it: human liver microsomes. The class given is in vitro ADME. The protocol:
as §1, §2

Where [2] appears, read: male, Sprague-Dawley (SD), plasma, intravenous injection 2 mg/kg.

T3 sequence (P33261 whole entry): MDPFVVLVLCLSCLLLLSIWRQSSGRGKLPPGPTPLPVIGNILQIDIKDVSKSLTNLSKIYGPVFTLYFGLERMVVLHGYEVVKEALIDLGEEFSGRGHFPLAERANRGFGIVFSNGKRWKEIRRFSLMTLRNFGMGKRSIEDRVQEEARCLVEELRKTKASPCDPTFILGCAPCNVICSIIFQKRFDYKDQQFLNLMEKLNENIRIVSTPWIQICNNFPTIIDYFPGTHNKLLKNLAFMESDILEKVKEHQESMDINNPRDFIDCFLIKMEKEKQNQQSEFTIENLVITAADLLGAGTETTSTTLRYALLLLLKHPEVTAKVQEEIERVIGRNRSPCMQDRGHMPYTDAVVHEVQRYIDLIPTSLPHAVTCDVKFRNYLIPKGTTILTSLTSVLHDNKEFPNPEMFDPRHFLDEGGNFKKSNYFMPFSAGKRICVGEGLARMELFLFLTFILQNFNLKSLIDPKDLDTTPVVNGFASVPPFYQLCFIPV
T2 sequence (P10635 whole entry): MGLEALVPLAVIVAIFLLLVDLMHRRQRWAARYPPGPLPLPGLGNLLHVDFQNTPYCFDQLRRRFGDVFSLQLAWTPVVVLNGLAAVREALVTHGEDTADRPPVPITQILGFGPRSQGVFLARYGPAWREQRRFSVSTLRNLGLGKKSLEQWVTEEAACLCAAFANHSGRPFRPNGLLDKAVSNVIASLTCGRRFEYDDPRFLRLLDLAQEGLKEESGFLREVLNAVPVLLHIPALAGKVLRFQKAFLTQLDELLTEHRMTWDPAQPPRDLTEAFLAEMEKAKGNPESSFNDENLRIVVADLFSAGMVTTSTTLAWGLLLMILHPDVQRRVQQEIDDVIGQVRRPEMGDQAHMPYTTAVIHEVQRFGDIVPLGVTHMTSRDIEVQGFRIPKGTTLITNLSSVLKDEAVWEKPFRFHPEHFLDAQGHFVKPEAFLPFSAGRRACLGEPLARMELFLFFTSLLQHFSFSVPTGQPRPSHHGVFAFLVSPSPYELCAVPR
T5 sequence (P11712 whole entry): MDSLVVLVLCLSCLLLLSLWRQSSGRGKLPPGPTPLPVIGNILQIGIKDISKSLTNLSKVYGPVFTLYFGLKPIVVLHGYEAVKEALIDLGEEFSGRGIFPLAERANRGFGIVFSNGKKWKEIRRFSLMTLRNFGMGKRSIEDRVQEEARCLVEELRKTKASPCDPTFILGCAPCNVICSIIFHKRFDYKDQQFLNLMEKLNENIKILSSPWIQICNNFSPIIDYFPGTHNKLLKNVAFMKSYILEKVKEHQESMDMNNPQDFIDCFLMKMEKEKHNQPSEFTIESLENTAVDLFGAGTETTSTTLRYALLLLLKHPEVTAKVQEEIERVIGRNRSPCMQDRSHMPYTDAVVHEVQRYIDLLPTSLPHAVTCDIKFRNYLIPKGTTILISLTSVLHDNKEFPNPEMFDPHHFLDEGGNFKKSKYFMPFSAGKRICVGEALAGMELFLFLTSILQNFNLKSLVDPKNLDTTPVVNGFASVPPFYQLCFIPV
T1 sequence (P51681 whole entry, species assumed): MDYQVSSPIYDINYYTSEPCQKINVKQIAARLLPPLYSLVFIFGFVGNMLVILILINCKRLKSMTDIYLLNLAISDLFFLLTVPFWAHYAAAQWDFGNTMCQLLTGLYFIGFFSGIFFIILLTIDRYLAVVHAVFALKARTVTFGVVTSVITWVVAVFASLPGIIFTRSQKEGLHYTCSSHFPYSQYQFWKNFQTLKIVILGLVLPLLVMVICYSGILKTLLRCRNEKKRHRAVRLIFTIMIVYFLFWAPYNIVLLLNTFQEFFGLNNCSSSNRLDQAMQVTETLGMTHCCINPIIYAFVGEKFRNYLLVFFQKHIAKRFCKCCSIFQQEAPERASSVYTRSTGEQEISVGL
T4 sequence (P08684 whole entry): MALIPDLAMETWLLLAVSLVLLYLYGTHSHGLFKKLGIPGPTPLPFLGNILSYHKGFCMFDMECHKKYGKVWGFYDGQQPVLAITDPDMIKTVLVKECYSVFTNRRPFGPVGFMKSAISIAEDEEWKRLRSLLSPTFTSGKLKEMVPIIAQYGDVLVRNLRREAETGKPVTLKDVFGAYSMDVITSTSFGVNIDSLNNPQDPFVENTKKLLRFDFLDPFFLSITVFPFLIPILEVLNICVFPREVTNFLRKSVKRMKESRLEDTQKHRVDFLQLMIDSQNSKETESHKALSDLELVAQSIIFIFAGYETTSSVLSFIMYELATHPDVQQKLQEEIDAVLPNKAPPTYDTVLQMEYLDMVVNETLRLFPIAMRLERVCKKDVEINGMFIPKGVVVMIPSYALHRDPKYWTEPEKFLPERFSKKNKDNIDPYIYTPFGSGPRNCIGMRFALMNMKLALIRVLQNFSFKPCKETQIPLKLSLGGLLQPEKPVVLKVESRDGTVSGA

Broadly, the IC50 is the midpoint of a concentration-inhibition curve. Broadly, the clearance is a measure of how efficiently the substance is removed, as volume per time. Low readings indicate inefficient removal, high ones efficient removal. As a reminder, the half-life is how long it takes for the measured level to halve. A word on the bioavailability: it is dose-corrected exposure relative to a reference, in per cent. Read a high bioavailability as good availability. Turning to `CCCCOCCOc1ccc(-c2ccc(OCC)c(/C=C/C(=O)Nc3ccc([S@+]([O-])Cc4c(C)ncn4CC)cc3)c2)cc1` [WX047], the IC50 at CCR5 was 0.0067 µM; on CYP2D6, above 50 µM; against CYP2C19, above 50 µM; against CYP3A4, above 50 µM; on CYP2C9 it was above 50 µM. In series [1] (setting [2]), the clearance was determined as 0.0312 L/h/kg. This compound gave a half-life in series [1] (setting [2]) of 3.06 h. Further, the bioavailability in series [1] (male, Sprague-Dawley (SD), plasma, oral 10 mg/kg vs intravenous 2 mg/kg) was 40.4%. In addition, in series [1] (intravenous injection 2 mg/kg), the “Area Under a Curve (0-inf)” value amounted to 101.904 µM·h. Besides, in series [1] (oral 10 mg/kg), the “Area Under a Curve (0-inf/0-last)” value is 204.785 µM·h. The compound also registered a Peak time in series [1] (oral 10 mg/kg) of 5.0 h. Besides, in series [1] (oral, relative to Cenicriviroc), the “Oral plasma system exposure (AUC0-inf) as multiple of the reference compound” value was 6.4 times. Moreover, the “Plasma clearance as percent of that of the reference compound” value in series [1] (relative to Cenicriviroc) came out at 33%.
